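Protocol summary: plate cells (96-well), add compound at 5 concentrations, incubate 48 h, interpolate endpoints linearly. GI50 marks 50% less growth. TGI is the concentration that stops growth completely.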
What was measured:
Test in all cases: DTP human tumour cell line panel, 48 h
IGROV1 ovarian = test system: IGROV1 ovarian
SK-OV-3 ovarian = test system: SK-OV-3 ovarian
NCI-H23 lung = test system: NCI-H23 lung
U251 CNS = test system: U251 CNS
HCC-2998 colon = test system: HCC-2998 colon
SK-MEL-5 melanoma = test system: SK-MEL-5 melanoma
COLO 205 colon = test system: COLO 205 colon
SNB-19 CNS = test system: SNB-19 CNS
K-562 leukemia = test system: K-562 leukemia
SW-620 colon = test system: SW-620 colon

| SMILES | TGI (IGROV1 ovarian) | TGI (SK-OV-3 ovarian) | TGI (NCI-H23 lung) | TGI (U251 CNS) | TGI (HCC-2998 colon) | TGI (SK-MEL-5 melanoma) | TGI (COLO 205 colon) | TGI (SNB-19 CNS) | GI50 (K-562 leukemia) | TGI (K-562 leukemia) | GI50 (IGROV1 ovarian) | GI50 (SK-OV-3 ovarian) | GI50 (NCI-H23 lung) | GI50 (U251 CNS) | GI50 (HCC-2998 colon) | GI50 (SW-620 colon) | TGI (SW-620 colon) | GI50 (SK-MEL-5 melanoma) | GI50 (COLO 205 colon) | GI50 (SNB-19 CNS) |
| --- | --- | --- | --- | --- | --- | --- | --- | --- | --- | --- | --- | --- | --- | --- | --- | --- | --- | --- | --- | --- |
| CC(C)(C)NCc1cc(C(C)(C)C)cc(-c2ccc(Cl)cc2)c1O | 24.6 µM | 31.5 µM | 29.4 µM | 24.1 µM | 29.6 µM | 29.7 µM | 23.8 µM | 30.5 µM | – | – | – | – | – | – | – | – | – | – | – | – |
| Cn1c(=O)c(Oc2ccccc2F)cc2cnc(NC3CCOCC3)nc21 | > 25 µM | > 25 µM | > 25 µM | > 25 µM | > 25 µM | > 25 µM | > 25 µM | > 25 µM | > 25 µM | > 25 µM | > 25 µM | > 25 µM | > 25 µM | > 25 µM | > 25 µM | > 25 µM | > 25 µM | > 25 µM | > 25 µM | > 25 µM |
| Cc1ccc(S(=O)(=O)NC(=O)NC23CC4CC(CC(F)(C4)C2)C3)cc1 | > 100 µM | > 100 µM | > 100 µM | > 100 µM | > 100 µM | > 100 µM | > 100 µM | > 100 µM | – | > 100 µM | – | – | – | – | – | – | > 100 µM | – | – | – |
| CO/C1=C\C(C)=C\C(C)C(O)C(C)C/C(C)=C/C=C/C(OC)C(C(C)C(O)C(C)C2(O)CC(O)C(C)C(C(C)C)O2)OC1=O (centres undefined) | 23.7 µM | 33.6 µM | 15 µM | 17 µM | 12.2 µM | 0.00177 µM | – | 24.9 µM | – | 13.7 µM | – | – | – | – | – | – | – | – | – | – |
| CCOC(=O)C1(Cc2ccccc2)CCCCCN1 (centres undefined) | > 100 µM | > 100 µM | > 100 µM | > 100 µM | > 100 µM | – | > 100 µM | – | – | > 100 µM | – | – | – | – | – | – | > 100 µM | – | – | – |
| CCCCNN | > 100 µM | > 100 µM | > 100 µM | > 100 µM | – | > 100 µM | > 100 µM | > 100 µM | – | > 100 µM | – | – | – | – | – | – | > 100 µM | – | – | – |
| CN(C)N1C(=O)c2ccccc2NC1c1ccccc1 (centres undefined) | > 100 µM | > 100 µM | > 100 µM | > 100 µM | > 100 µM | > 100 µM | > 100 µM | > 100 µM | – | – | – | – | – | – | – | – | > 100 µM | – | – | – |
| Cc1sc(C)c(Cc2c(C)sc(C)c2CCl)c1CCl | > 100 µM | > 100 µM | > 100 µM | > 100 µM | – | > 100 µM | > 100 µM | > 100 µM | 23 µM | > 100 µM | > 100 µM | > 100 µM | > 100 µM | > 100 µM | – | > 100 µM | > 100 µM | > 100 µM | > 100 µM | > 100 µM |
| CC(C)c1ccc(/C(C(=O)O)=C(\O)C(=O)O)cc1 | > 100 µM | > 100 µM | > 100 µM | > 100 µM | – | > 100 µM | > 100 µM | > 100 µM | – | > 100 µM | – | – | – | – | – | – | > 100 µM | – | – | – |
| NC(=O)N/N=C/C(/C=N/NC(N)=O)[N+](=O)[O-] | > 100 µM | > 100 µM | > 100 µM | – | – | – | > 100 µM | > 100 µM | – | > 100 µM | – | – | – | – | – | – | > 100 µM | – | – | – |
| C1CCN(c2nsc(N3CCCCC3)n2)CC1 | > 100 µM | > 100 µM | > 100 µM | > 100 µM | > 100 µM | > 100 µM | – | > 100 µM | – | > 100 µM | – | – | – | – | – | – | > 100 µM | – | – | – |
| NC(=O)c1cc(Br)cc(C2CCCCC2)c1O | 25.9 µM | 31.1 µM | 30.8 µM | 23 µM | – | 28.9 µM | 31.1 µM | 27.9 µM | 14.4 µM | 34.5 µM | 12.4 µM | 17.2 µM | 15.3 µM | 10.8 µM | – | 15.5 µM | 29.8 µM | 15.1 µM | 16.5 µM | 13.8 µM |
| COc1ccc2c(c1OC)C1=C(C2=O)c2cc3c(cc2CCN1)OCO3 | > 100 µM | – | > 100 µM | – | 75.5 µM | 84.3 µM | > 100 µM | – | – | 87.8 µM | – | – | – | – | – | – | 47.5 µM | – | – | – |
| Nc1ccc2c(c1)NCCN2 | > 100 µM | – | > 100 µM | > 100 µM | > 100 µM | 46.8 µM | > 100 µM | > 100 µM | – | > 100 µM | – | – | – | – | – | – | – | – | – | – |
| O=C(c1ccc2ncc(-c3nc(NC4CC4)ncc3F)n2c1)N1CCOCC1 | 12.2 µM | – | 9.68 µM | > 100 µM | 8.99 µM | 8.53 µM | – | – | 3.21 µM | 29 µM | 2.42 µM | – | 2.58 µM | 2.46 µM | 3.01 µM | 2.91 µM | > 100 µM | 2.6 µM | – | – |
| COc1cc2noc(-c3ccccc3)c2cc1OC | > 100 µM | > 100 µM | – | > 100 µM | > 100 µM | > 100 µM | > 100 µM | > 100 µM | – | > 100 µM | – | – | – | – | – | – | > 100 µM | – | – | – |
| COCC(=O)CP(=O)(OC)OC | > 100 µM | > 100 µM | > 100 µM | > 100 µM | – | > 100 µM | > 100 µM | > 100 µM | – | > 100 µM | – | – | – | – | – | – | > 100 µM | – | – | – |
| Cc1c(C(=O)c2ccccc2C(=O)O)c2ccccc2n1C | > 100 µM | > 100 µM | > 100 µM | > 100 µM | > 100 µM | > 100 µM | – | – | – | > 100 µM | – | – | – | – | – | – | > 100 µM | – | – | – |
| Cc1nc2ccc(Nc3nc(NCCN4CCOCC4)nc(Nc4ccc(F)cc4)n3)cc2n1Cc1ccccc1 | 46 µM | 17.3 µM | 24.8 µM | – | 6.23 µM | 2.98 µM | 3.13 µM | 15.2 µM | 1.79 µM | 7.42 µM | 5.59 µM | 4.48 µM | 3.67 µM | – | 2.74 µM | 3.24 µM | 10.7 µM | 1.63 µM | 1.62 µM | 3.07 µM |
| O=C(NCCCNc1cc(-c2cn(-c3ccccc3)nc2-c2cccc(O)c2)ccn1)c1ccccc1 | 59.6 µM | 92.8 µM | 26.6 µM | 21 µM | 3.69 µM | 3.12 µM | 3.67 µM | > 100 µM | – | – | 4.2 µM | 6.63 µM | 3.04 µM | 4.12 µM | 1.92 µM | 2.36 µM | 6.15 µM | 1.49 µM | 1.71 µM | 7.75 µM |
